Test results: patent US10323060B2, “Benzoic acid derivatives of bile acid as FXR/TGR5 agonists and methods of use thereof” (ENANTA PHARMACEUTICALS, INC., priority 2016, dated 2019)

Molecular target: human FXR (NR1H4) (Homo sapiens (Human), UniProt Q96RI1)
Assay: Human FXR (NR1H4) Assay (luciferase reporter, Indigo Bioscience kit); for Efficacy (%): efficacy normalized to CDCA set as 100%
Type: cell-based
Conditions: for EC50: FXR agonistic potency range, CHO reporter cells expressing human NR1H4, 22 hours incubation; for Emax: read-out: Efficacy (%)
Description: Assays Human FXR (NR1H4) Assay
Determination of a ligand mediated Gal4 promoter driven transactivation to quantify ligand binding mediated activation of FXR. FXR Reporter Assay kit purchased from Indigo Bioscience (Catalogue number: IB00601) to determine the potency and efficacy of compound developed by Enanta that can induce FXR activation. The principle application of this reporter assay system is to quantify functional activity of human FXR. The assay utilizes non-human mammalian cells, CHO (Chinese hamster ovary) cells engineered to express human NR1H4 protein (referred to as FXR). Reporter cells also incorporate the cDNA encoding beetle luciferase which catalyzes the substrates and yields photon emission. Luminescence intensity of the reaction is quantified using a plate-reading luminometer, Envision. Reporter Cells include the luciferase reporter gene functionally linked to an FXR responsive promoter. Thus, quantifying changes in luciferase expression in the treated reporter cells provides a sensitive surrogate measure of the changes in FXR activity. […] The assay is according to the manufacturer's instructions. In brief, the assay was performed in white, 96 well plates using final volume of 100 ul containing cells with different doses of compounds. Retrieve Reporter Cells from −80° C. storage. Perform a rapid thaw of the frozen cells by transferring a 10 ml volume of 37° C. cell recovery medium into the tube of frozen cells. Recap the tube of Reporter Cells and immediately place it in a 37° C. water bath for 5-10 minutes. Retrieve the tube of Reporter Cell Suspension from the water bath. Sanitize the outside surface of the tube with a 70% alcohol swab, and then transfer it into the cell culture hood. Dispense 90 μl of cell suspension into each well of the 96-well Assay Plate. Transfer the plate into 37° C. incubator, allowing the cells adherent to the bottom of the well. Dilute compounds in Dilution Plate (DP), and administrate to cells at Assay Plate (AP). DMSO content of the samples was kept at 0.2%. Cells were incubated for additional 22 hours before luciferase activities were measured. Thirty minutes before intending to quantify FXR activity, remove Detection Substrate and Detection Buffer from the refrigerator and place them in a low-light area so that they may equilibrate to room temperature. Remove the plate's lid and discard all media contents by ejecting it into an appropriate waste container. Gently tap the inverted plate onto a clean absorbent paper towel to remove residual droplets. Cells will remain tightly adhered to well bottoms. Add 100 μl of luciferase detection reagent to each well of the assay plate. Allow the assay plate to rest at room temperature for at least 5 minutes following the addition of LDR. Set the instrument (Envision) to perform a single 5 second “plate shake” prior to reading the first assay well. Read time may be 0.5 second (500 mSec) per well.

human FXR (NR1H4), sequence (Q96RI1 whole entry): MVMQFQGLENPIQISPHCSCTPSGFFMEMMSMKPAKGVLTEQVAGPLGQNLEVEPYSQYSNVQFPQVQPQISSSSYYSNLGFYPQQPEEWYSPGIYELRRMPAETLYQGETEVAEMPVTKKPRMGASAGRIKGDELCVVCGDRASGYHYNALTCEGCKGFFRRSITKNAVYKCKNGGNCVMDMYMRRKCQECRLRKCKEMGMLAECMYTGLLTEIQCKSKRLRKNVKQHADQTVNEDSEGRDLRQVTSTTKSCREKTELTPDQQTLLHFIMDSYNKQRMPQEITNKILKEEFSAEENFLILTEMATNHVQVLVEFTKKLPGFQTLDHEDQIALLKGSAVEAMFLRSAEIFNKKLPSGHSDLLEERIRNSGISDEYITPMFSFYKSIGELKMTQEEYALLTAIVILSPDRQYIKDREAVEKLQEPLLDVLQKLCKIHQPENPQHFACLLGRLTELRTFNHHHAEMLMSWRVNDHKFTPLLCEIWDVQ

SMILES	EC50 [nM]	Emax [%]
CC[C@H]1[C@@H](O)[C@@H]2[C@H](CC[C@]3(C)[C@@H]([C@H](C)C/C=C/c4ccccc4C(=O)OC)CC[C@@H]23)[C@@]2(C)CC[C@@H](O)C[C@@H]12 [Example 1]	1000 to 10000	217
CC[C@H]1[C@@H](O)[C@@H]2[C@H](CC[C@]3(C)[C@@H]([C@H](C)C/C=C/c4ccccc4C(=O)O)CC[C@@H]23)[C@@]2(C)CC[C@@H](O)C[C@@H]12 [Example 2]	< 100	313
CC[C@H]1[C@@H](O)[C@@H]2[C@H](CC[C@]3(C)[C@@H]([C@H](C)CCCc4ccccc4C(=O)O)CC[C@@H]23)[C@@]2(C)CC[C@@H](O)C[C@@H]12 [Example 3]	100 to 1000	352
CC[C@H]1[C@@H](O)[C@@H]2[C@H](CC[C@]3(C)[C@@H]([C@H](C)CC=Cc4cc(F)c(O)c(F)c4)CC[C@@H]23)[C@@]2(C)CC[C@@H](O)C[C@@H]12 [Example 4]	100 to 1000	298
CC[C@H]1[C@@H](O)[C@@H]2[C@H](CC[C@]3(C)[C@@H]([C@H](C)CCCc4cc(F)c(O)c(F)c4)CC[C@@H]23)[C@@]2(C)CC[C@@H](O)C[C@@H]12 [Example 5]	1000 to 10000	271
CC[C@H]1[C@@H](O)[C@@H]2[C@H](CC[C@]3(C)[C@@H]([C@H](C)Cc4nc5c(C(=O)OC)cccc5o4)CC[C@@H]23)[C@@]2(C)CC[C@@H](O)C[C@@H]12 [Example 6]	1000 to 10000	131
CC[C@H]1[C@@H](O)[C@@H]2[C@H](CC[C@]3(C)[C@@H]([C@H](C)Cc4nc5c(C(=O)O)cccc5o4)CC[C@@H]23)[C@@]2(C)CC[C@@H](O)C[C@@H]12 [Example 7]	100 to 1000	195
CC[C@H]1[C@@H](O)[C@@H]2[C@H](CC[C@]3(C)[C@@H]([C@H](C)CCCn4nnc(CC(=O)O)n4)CC[C@@H]23)[C@@]2(C)CC[C@@H](O)C[C@@H]12 [Example 8]	1000 to 10000	29
CC[C@H]1[C@@H](O)[C@@H]2[C@H](CC[C@]3(C)[C@@H]([C@H](C)CCCn4nnnc4CC(=O)O)CC[C@@H]23)[C@@]2(C)CC[C@@H](O)C[C@@H]12 [Example 9]	1000 to 10000	172
CC[C@H]1[C@@H](O)[C@@H]2[C@H](CC[C@]3(C)[C@@H]([C@H](C)CC4CC4c4ccccc4C(=O)O)CC[C@@H]23)[C@@]2(C)CC[C@@H](O)C[C@@H]12 (stereo partly shown) [Example 10]	100 to 1000	252
CC[C@H]1[C@@H](O)[C@@H]2[C@H](CC[C@]3(C)[C@@H]([C@H](C)CCOc4ccccc4C(=O)O)CC[C@@H]23)[C@@]2(C)CC[C@@H](O)C[C@@H]12 [Example 11]		388
CC[C@H]1[C@@H](O)[C@@H]2[C@H](CC[C@]3(C)[C@@H]([C@H](C)C/C=C/c4ccc(C(=O)OC)c(O)c4)CC[C@@H]23)[C@@]2(C)CC[C@@H](O)C[C@@H]12 [Example 12]	1000 to 10000	134
CC[C@H]1[C@@H](O)[C@@H]2[C@H](CC[C@]3(C)[C@@H]([C@H](C)C/C=C/c4ccc(C(=O)O)c(O)c4)CC[C@@H]23)[C@@]2(C)CC[C@@H](O)C[C@@H]12 [Example 13]	100 to 1000	166
CC[C@H]1[C@@H](O)[C@@H]2[C@H](CC[C@]3(C)[C@@H]([C@H](C)CCCc4ccc(C(=O)O)c(O)c4)CC[C@@H]23)[C@@]2(C)CC[C@@H](O)C[C@@H]12 [Example 14]	1000 to 10000	232
CC[C@H]1[C@@H](O)[C@@H]2[C@H](CC[C@]3(C)[C@@H]([C@H](C)C/C=C/c4ccc(C(C)C(=O)OC)cc4)CC[C@@H]23)[C@@]2(C)CC[C@@H](O)C[C@@H]12 (stereo partly shown) [Example 15]	1000 to 10000	40
CC[C@H]1[C@@H](O)[C@@H]2[C@H](CC[C@]3(C)[C@@H]([C@H](C)C/C=C/c4ccc(C(C)C(=O)O)cc4)CC[C@@H]23)[C@@]2(C)CC[C@@H](O)C[C@@H]12 (stereo partly shown) [Example 16]	1000 to 10000	248
CC[C@H]1[C@@H](O)[C@@H]2[C@H](CC[C@]3(C)[C@@H]([C@H](C)CCCc4ccc(C(C)C(=O)O)cc4)CC[C@@H]23)[C@@]2(C)CC[C@@H](O)C[C@@H]12 (stereo partly shown) [Example 17]	1000 to 10000	261

SMILES	EC50 [nM]	Emax [%]
CC[C@H]1[C@@H](O)[C@@H]2[C@H](CC[C@]3(C)[C@@H]([C@H](C)C/C=C/c4ccc(C(=O)OC)cc4)CC[C@@H]23)[C@@]2(C)CC[C@@H](O)C[C@@H]12 [Example 18]	1000 to 10000	113
CC[C@H]1[C@@H](O)[C@@H]2[C@H](CC[C@]3(C)[C@@H]([C@H](C)C/C=C/c4ccc(C(=O)O)cc4)CC[C@@H]23)[C@@]2(C)CC[C@@H](O)C[C@@H]12 [Example 19]	100 to 1000	244
CC[C@H]1[C@@H](O)[C@@H]2[C@H](CC[C@]3(C)[C@@H]([C@H](C)CCCc4ccc(C(=O)O)cc4)CC[C@@H]23)[C@@]2(C)CC[C@@H](O)C[C@@H]12 [Example 20]	1000 to 10000	266
CC[C@H]1[C@@H](O)[C@@H]2[C@H](CC[C@]3(C)[C@@H]([C@H](C)C/C=C/c4cccc(C(=O)OC)c4)CC[C@@H]23)[C@@]2(C)CC[C@@H](O)C[C@@H]12 [Example 21]	1000 to 10000	92
CC[C@H]1[C@@H](O)[C@@H]2[C@H](CC[C@]3(C)[C@@H]([C@H](C)C/C=C/c4cccc(C(=O)O)c4)CC[C@@H]23)[C@@]2(C)CC[C@@H](O)C[C@@H]12 [Example 22]	1000 to 10000	195
CC[C@H]1[C@@H](O)[C@@H]2[C@H](CC[C@]3(C)[C@@H]([C@H](C)CCCc4cccc(C(=O)O)c4)CC[C@@H]23)[C@@]2(C)CC[C@@H](O)C[C@@H]12 [Example 23]	1000 to 10000	292
CC[C@H]1[C@@H](O)[C@@H]2[C@H](CC[C@]3(C)[C@@H]([C@H](C)C/C=C/c4ccc(-c5nnn[nH]5)cc4)CC[C@@H]23)[C@@]2(C)CC[C@@H](O)C[C@@H]12 [Example 24]	1000 to 10000	234
CC[C@H]1[C@@H](O)[C@@H]2[C@H](CC[C@]3(C)[C@@H]([C@H](C)C/C=C/c4ccc(F)cc4C(=O)O)CC[C@@H]23)[C@@]2(C)CC[C@@H](O)C[C@@H]12 [Example 25]		376
CC[C@H]1[C@@H](O)[C@@H]2[C@H](CC[C@]3(C)[C@@H]([C@H](C)CCCc4ccc(F)cc4C(=O)O)CC[C@@H]23)[C@@]2(C)CC[C@@H](O)C[C@@H]12 [Example 26]	100 to 1000	256
CC[C@H]1[C@@H](O)[C@@H]2[C@H](CC[C@]3(C)[C@@H]([C@H](C)C/C=C/c4cnccc4C(=O)OC)CC[C@@H]23)[C@@]2(C)CC[C@@H](O)C[C@@H]12 [Example 27]	1000 to 10000	296
CC[C@H]1[C@@H](O)[C@@H]2[C@H](CC[C@]3(C)[C@@H]([C@H](C)C/C=C/c4cnccc4C(=O)O)CC[C@@H]23)[C@@]2(C)CC[C@@H](O)C[C@@H]12 [Example 28]	100 to 1000	300
CC[C@H]1[C@@H](O)[C@@H]2[C@H](CC[C@]3(C)[C@@H]([C@H](C)C/C=C/c4ccccc4C#N)CC[C@@H]23)[C@@]2(C)CC[C@@H](O)C[C@@H]12 [Example 29]	1000 to 10000	210
CC[C@H]1[C@@H](O)[C@@H]2[C@H](CC[C@]3(C)[C@@H]([C@H](C)C/C=C/c4ccccc4-c4nnn[nH]4)CC[C@@H]23)[C@@]2(C)CC[C@@H](O)C[C@@H]12 [Example 30]	100 to 1000	332
CC[C@H]1[C@@H](O)[C@@H]2[C@H](CC[C@]3(C)[C@@H]([C@H](C)Cc4nc5cccc(C(=O)OC)c5[nH]4)CC[C@@H]23)[C@@]2(C)CC[C@@H](O)C[C@@H]12 [Example 31]	1000 to 10000	34
CC[C@H]1[C@@H](O)[C@@H]2[C@H](CC[C@]3(C)[C@@H]([C@H](C)Cc4nc5cccc(C(=O)O)c5[nH]4)CC[C@@H]23)[C@@]2(C)CC[C@@H](O)C[C@@H]12 [Example 32]	1000 to 10000	24
CC[C@H]1[C@@H](O)[C@@H]2[C@H](CC[C@]3(C)[C@@H]([C@H](C)CC4CC4c4cccc(C(=O)O)c4)CC[C@@H]23)[C@@]2(C)CC[C@@H](O)C[C@@H]12 (stereo partly shown) [Example 33]	1000 to 10000	229
